Laboratory results published in patent publication US20100041665A1, “N-PHENYL-PRENYLAMINE DERIVATIVES FOR THE TREATMENT OF COGNITIVE, NEURODEGENERATIVE OR NEURONAL DISEASES OR DISORDERS” (NOSCIRA, S.A., priority 2006, published 2010).

Tests used:
[1] = target: Recombinant human glycogen synthase kinase 3 beta (Homo sapiens, UniProt P49841); test: GSK-3 beta inhibition assay; assay type: biochemical; conditions: 0.5 h, percentage of enzyme activity; for remaining activity at 25 µM: compound at 25 μM; for remaining activity at 50 µM: compound at 50 μM
Chain of Recombinant human glycogen synthase kinase 3 beta (P49841 whole entry): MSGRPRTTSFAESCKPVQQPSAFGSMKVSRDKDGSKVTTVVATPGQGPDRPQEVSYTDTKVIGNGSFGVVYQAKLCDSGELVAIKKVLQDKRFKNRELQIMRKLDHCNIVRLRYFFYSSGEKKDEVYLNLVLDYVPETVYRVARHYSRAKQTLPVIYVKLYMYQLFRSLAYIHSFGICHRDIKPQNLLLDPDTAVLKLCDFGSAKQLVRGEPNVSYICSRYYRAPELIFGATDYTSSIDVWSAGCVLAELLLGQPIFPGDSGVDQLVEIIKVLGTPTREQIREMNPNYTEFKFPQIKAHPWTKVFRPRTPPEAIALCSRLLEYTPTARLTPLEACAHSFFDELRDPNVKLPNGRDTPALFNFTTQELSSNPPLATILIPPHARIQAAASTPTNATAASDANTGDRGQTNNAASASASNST
Method: GSK-3 beta Inhibition Assay
The GSK-3 beta activity of the compounds of formula (I) according to the present invention was determined by incubation of a mixture of recombinant human GSK-3 enzyme, a phosphate source and GSK-3 substrate in the presence and in the absence of the corresponding test compound, and by measuring the GSK-3 activity of this mixture. The compounds where tested at final concentrations of 25 and 50 μM.
Recombinant human glycogen synthase kinase 3 beta was assayed in MOPS 11 mM, pH 7.4, EDTA 0.2 mM, EGTA 1.25 mM, MgCl2 26.25 mM and sodium orthovanadate 0.25 mM in the presence of 62.5 μM of Phospho-Glycogen Synthase Peptide-2 (GS-2), 0.5 μCi gamma-^33P-ATP and unlabelled ATP at a final concentration of 12.5 μM. The final assay volume was 20 μl. After incubation for 30 minutes at 30° C., 15 μl aliquots were spotted onto P81 phosphocellulose papers. Filters were washed four times for at least 10 minutes each and counted with 1.5 ml of scintillation cocktail in a scintillation counter.
(§1) The compounds of formula (I) of the present invention where submitted to the above indicated assays, in order to determine both their GSK-3 inhibition activity and BACE activity inhibition. The results are indicated in Table I and Table II, in percentage of the respective enzyme activity.

[2] = target: T1, rhBACE-1 β-Secretase recombinant human (Homo sapiens, UniProt P56817); test: BACE assay (FRET); assay type: biochemical; conditions: percentage of enzyme activity
T1 construct: purchased R&D Systems 931-AS
T1 sequence (P56817 46-457 limits assumed): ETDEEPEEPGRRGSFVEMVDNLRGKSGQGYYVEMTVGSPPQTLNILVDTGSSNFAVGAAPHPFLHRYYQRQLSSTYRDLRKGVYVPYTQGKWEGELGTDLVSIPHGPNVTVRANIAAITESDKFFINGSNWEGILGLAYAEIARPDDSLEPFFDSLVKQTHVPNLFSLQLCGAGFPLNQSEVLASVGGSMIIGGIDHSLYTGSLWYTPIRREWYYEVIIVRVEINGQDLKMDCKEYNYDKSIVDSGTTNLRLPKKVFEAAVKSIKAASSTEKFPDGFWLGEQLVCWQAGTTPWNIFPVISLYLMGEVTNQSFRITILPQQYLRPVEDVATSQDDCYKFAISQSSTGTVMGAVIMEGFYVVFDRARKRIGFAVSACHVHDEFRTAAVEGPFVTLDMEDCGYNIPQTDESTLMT
Excerpt: The aim of this assay is to determine if a compound, either synthetic or of marine origin, is a BACE-1 inhibitor, to avoid the formation of Aβ. This assay is based on FRET technology (Fluorescence Resonance Energy Transfer). FRET is used to measure cleavage of a peptide substrate, among other uses. […] When a substrate peptide cleavage occurs, the energy balance is broken and all the donor fluorescence can be observed. The increase in fluorescence is linearly related to the rate of proteolysis (Gordon, G W et al., 1998). In this assay the reaction occurs between an enzyme, purified BACE-1, and a fluorogenic peptidic substrate who present the “Swedish mutation”. The peptide cleavage by BACE-1 produces fluorescence energy and enzymatic activity can be quantified.
The reagents which are used in this assay are the following: • rhBACE-1 β-Secretase recombinant human (R&D Systems. Ref. 931-AS). • Fluorogenic Peptide Substrate IV (R&D Systems. Ref. ES004). • Beta-SECRETASE INHIBITOR H-4848. (BACHEM. Ref. H-4848.0001). • Sodium acetate.
The assay is carried out in a 96 wells microplate. The final concentration of substrate is 3.5 μM per well, and the enzyme concentration is 0.5 μg/ml. The final volume of the assay is 100 μl per well and all reagents are diluted in Reaction Buffer. The compounds are tested at a concentration of 10^−5 and 10^−6 M. The control in the assay is the commercial inhibitor β-Secretase inhibitor H-4848 from BACHEM, which is tested at 300 nM. All the samples and controls are studied by duplicate.
The plate is mixed gently and changes in the fluorescence are measured using a fluorimeter plate reader, with 320 nm excitation filter and 405 nm emission filter. The temperature should be preferably maintained between 25 and 30° C. Measurements are carried out every ten minutes during an hour. The first measure is subtracted from the last to calculate the fluorescence increase, evaluating the enzymatic activity. The 100% activity is calculated as the mean of the results of wells without sample or inhibitor.
In the cases where abnormal effects in fluorescence were detected, BACE inhibition activity was assayed using BACE-1 (beta-Secretase) FRET ASSAY KIT (Invitrogen, Ref. P2985). Fluorescence was measured with a fluorimeter plate reader, with 544 nm excitation filter and 580 nm emission filter.
as §1

remaining activity at 25 µM [1]	remaining activity at 50 µM [1]	% of BACE activity ([2]; compound at 1 μM)	% of BACE activity ([2]; compound at 10 μM)	SMILES
67.3%	36.2%	76 ± 25%	3 ± 5%	COC(=O)c1cccc(N(CC=C(C)CCC=C(C)C)CC=C(C)CCC=C(C)C)c1 [Compound 20, 3-[Bis-(3,7-dimethyl-octa-2,6-dienyl)-amino]-benzoic acid methyl ester]
84.1%	39.6%	89.5 ± 9%	25.5 ± 6%	CC(C)=CCC/C(C)=C/CC/C(C)=C/CNc1cccc(C(=O)O)c1 [Compound 9]
103%	98.2%	88.3 ± 3.8%	27.5 ± 9.2%	CCCOc1ccc(C(=O)OC)cc1NC/C=C(\C)CC/C=C(\C)CCC=C(C)C [Compound 43]
	54.7%	0%	0%	COC(=O)c1cccc(NC/C=C(\C)CC/C=C(\C)CCC=C(C)C)c1 [Compound 7]
105%	97.9%	100%	36.5 ± 0.7%	CC(C)=CCC/C(C)=C/CC/C(C)=C/CNc1cc(C(=O)O)ccc1O [Compound 48]
27.9%	19.8%	122.5 ± 23.3%	115.5 ± 29%	COc1ccc(C(=O)NCCc2c[nH]cn2)cc1N(C/C=C(\C)CCC=C(C)C)C/C=C(\C)CCC=C(C)C [Compound 46]
74.8%	56.7%	94 ± 8%	64.5 ± 9%	COc1ccccc1NCC=C(C)CCC=C(C)CCC=C(C)C [Compound 12, (2-Methoxy-phenyl)-(3,7,11-trimethyl-dodeca-2,6,10-trienyl)-amine]
48.5%	20.7%	83 ± 12%	40.5 ± 19%	COC(=O)c1ccc(O)c(N(CC=C(C)CCC=C(C)CCC=C(C)C)CC=C(C)CCC=C(C)CCC=C(C)C)c1 [Compound 28, 3-[Bis-(3,7,11-trimethyl-dodeca-2,6,10-trienyl)-amino]-4-hydroxy-benzoic acid methyl ester]
37.4%	24.6%	24 ± 12%	1.6 ± 2%	CC(C)=CCC/C(C)=C/CN(C/C=C(\C)CCC=C(C)C)c1cccc(C(=O)O)c1 [Compound 24]
